Measurements as given in the supplement of paper PMC10307832.

Tests used:
Experiment in all cases: relative viability (nuclei count vs DMSO), 5 days (fraction); higher = more cells survive
[1] = compound: COc1cc2c(Oc3ccc4[nH]c(C)cc4c3F)ncnc2cc1OCCCN1CCCC1 [Cediranib] + CC1(C)CCC(c2ccc(Cl)cc2)=C(CN2CCN(c3ccc(C(=O)NS(=O)(=O)c4ccc(N[C@H](CCN5CCOCC5)CSc5ccccc5)c(S(=O)(=O)C(F)(F)F)c4)cc3)CC2)C1 [Navitoclax] (partner 0.5 µM)
Method in brief: (§1)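 Lung cancer cell lines were seeded in 1536-well plates and dosed by pin tool the next day, with either a single drug or a fixed anchor-drug dose combined with five library-drug doses (not always all listed) spaced in √10 steps. Five days later, one step fixed the cells and stained their nuclei (final 0.05% Triton X-100, 1% formaldehyde, 1 ug/ml Hoechst), and nuclei were counted on 4× images. Relative viability is the nuclei count in treated wells divided by the count in vehicle wells, and each value is the median of duplicate plates.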

[2] = compound: COc1cc2c(Oc3ccc4[nH]c(C)cc4c3F)ncnc2cc1OCCCN1CCCC1 [Cediranib] + Cc1nc(NC(=O)N2CCC[C@H]2C(N)=O)sc1-c1ccnc(C(C)(C)C(F)(F)F)c1 [Alpelisib] (partner 2 µM)
Method in brief: as §1

[3] = compound: Nc1ncn([C@H]2C[C@H](O)[C@@H](CO)O2)c(=O)n1 [Decitabine] + NC(=O)Nc1cc(-c2cccc(F)c2)sc1C(=O)N[C@H]1CCCNC1 [AZD7762] (partner 0.2 µM)
Method in brief: as §1

[4] = compound: Nc1ncn([C@H]2C[C@H](O)[C@@H](CO)O2)c(=O)n1 [Decitabine] + O=C(c1cc(Cc2n[nH]c(=O)c3ccccc23)ccc1F)N1CCN(C(=O)C2CC2)CC1 [Olaparib] (partner 8 µM)
Method in brief: as §1

Cell Line | relative viability ([1]; first compound 0.04 µM) | relative viability ([1]; first compound 0.1265 µM) | relative viability ([1]; first compound 0.4 µM) | relative viability ([1]; first compound 1.265 µM) | relative viability ([1]; first compound 4 µM) | relative viability ([2]; first compound 0.04 µM) | relative viability ([2]; first compound 0.1265 µM) | relative viability ([2]; first compound 0.4 µM) | relative viability ([2]; first compound 1.265 µM) | relative viability ([2]; first compound 4 µM) | relative viability ([3]; first compound 0.04 µM) | relative viability ([3]; first compound 0.1265 µM) | relative viability ([3]; first compound 0.4 µM) | relative viability ([3]; first compound 1.265 µM) | relative viability ([3]; first compound 4 µM) | relative viability ([4]; first compound 0.04 µM) | relative viability ([4]; first compound 0.1265 µM) | relative viability ([4]; first compound 0.4 µM) | relative viability ([4]; first compound 1.265 µM) | relative viability ([4]; first compound 4 µM)
NCI-H727 | 0.404 | 0.409 | 0.38 | 0.532 | 0.583 | 0.452 | 0.59 | 0.55 | 0.624 | 0.551 | 0.562 | 0.588 | 0.427 | 0.462 | 0.574 | 0.643 | 0.54 | 0.685 | 0.55 | 0.481
PC-3 [JPC-3] | 0.715 | 0.705 | 0.735 | 0.849 | 0.801 | 0.953 | 0.976 | 0.998 | 1.02 | 0.97 | – | 0.793 | 0.6 | 0.453 | 0.602 | – | 0.762 | 0.368 | 0.465 | 0.455
NCI-H1792 | 0.446 | 0.442 | 0.588 | 0.668 | 0.393 | 0.762 | 0.939 | 0.648 | 0.718 | 0.589 | 0.616 | 0.731 | 0.478 | 0.242 | 0.19 | 0.211 | 0.288 | 0.148 | 0.0819 | 0.116
LU99A | 0.787 | – | 0.813 | 0.698 | 0.969 | 0.567 | – | 0.489 | 0.49 | 0.589 | 0.373 | 0.376 | 0.335 | 0.32 | 0.29 | 0.247 | 0.238 | 0.217 | 0.193 | 0.187
H3255 | 0.673 | 0.429 | 0.447 | 0.453 | 0.376 | 0.785 | 0.754 | 0.691 | 0.622 | 0.61 | 0.662 | 0.876 | 0.617 | 0.682 | 0.601 | 0.487 | 0.469 | 0.415 | 0.43 | 0.378
NCI-H1734 | 0.759 | 0.83 | 0.846 | 0.807 | 0.842 | 0.626 | 0.741 | 0.711 | 0.619 | 0.848 | 0.417 | 0.51 | 0.501 | 0.209 | 0.209 | 0.274 | 0.302 | 0.203 | 0.152 | 0.191
NCI-H1915 | 0.787 | 0.721 | 0.805 | 0.788 | 0.811 | 1.05 | 1 | 0.997 | 1.08 | 1.09 | 0.296 | 0.266 | 0.217 | 0.195 | 0.201 | 0.173 | 0.169 | 0.142 | 0.124 | 0.145
NCI-H1651 | 1.04 | 1.01 | 0.899 | 1.02 | 1.18 | 1.04 | 1.03 | 1.02 | 1.01 | 0.805 | 0.43 | 0.446 | 0.336 | 0.341 | 0.355 | 0.136 | 0.163 | 0.12 | 0.144 | 0.118
HOP-62 | 1.08 | 0.892 | 0.867 | 1.1 | 1.14 | 1.16 | – | 0.74 | 0.96 | 1.18 | 0.361 | 0.297 | 0.143 | 0.117 | 0.147 | 0.108 | 0.141 | 0.0882 | 0.0978 | 0.132
CAL-12T | 1.33 | 1.33 | 1.37 | 1.27 | 1.34 | 1.38 | 1.13 | 1.05 | 1.26 | 1.13 | 0.638 | 0.578 | 0.48 | 0.443 | 0.453 | 0.438 | 0.412 | 0.257 | 0.266 | 0.227
NCI-H3122 | 1.05 | 1.03 | 1.05 | 0.998 | 1.02 | 0.894 | 1.06 | 0.731 | 0.852 | 0.906 | 0.927 | 0.823 | 0.529 | 0.466 | 0.5 | 0.34 | 0.307 | 0.225 | 0.201 | 0.206
NCI-H1395 | 1.23 | – | 1.23 | 1.13 | 1.05 | 0.947 | – | 1.01 | 1.04 | 1.04 | 0.379 | 0.39 | 0.446 | 0.391 | 0.348 | 0.518 | 0.432 | 0.465 | 0.438 | 0.418
PC-14 | 0.989 | 1.03 | 1.02 | 0.905 | 1.24 | 0.96 | 1 | 0.906 | 0.965 | 0.986 | 0.194 | 0.281 | 0.124 | 0.159 | 0.116 | 0.114 | 0.0887 | 0.0551 | 0.0482 | 0.0711
BEN | 0.0686 | 0.0663 | 0.0683 | 0.0702 | 0.0649 | 1.17 | 0.814 | 0.906 | 1.04 | 0.953 | 0.691 | 0.791 | 0.55 | 0.586 | 0.664 | 0.666 | 0.595 | 0.457 | 0.43 | 0.409
EPLC-272H | 1.35 | – | 1.05 | 1.15 | 1.27 | 1.06 | – | 0.962 | 0.97 | 1 | 0.255 | 0.195 | – | 0.158 | 0.221 | 0.32 | 0.255 | – | 0.15 | 0.337
LK-2 | 1 | 0.848 | 0.768 | 0.828 | 0.861 | 1.36 | 1.01 | 1.13 | 1.11 | 0.475 | 0.299 | 0.37 | 0.288 | 0.256 | 0.14 | 0.497 | 0.38 | 0.297 | 0.211 | 0.24
